Literature values, collected in patent US8097423B2, “MN/CA IX and breast cancer therapy” (Institute of Virology, priority 2008, dated 2012).

Legend:
[1] = weak basic drug
T2-4 N0-1 breast cancer = conditions: breast cancer patients, primary systemic treatment, four cycles before surgery; no significant difference between arms
[2] = Phase I and II clinical trials

**Q.** With CC/C(=C(\c1ccccc1)c1ccc(OCCN(C)C)cc1)c1ccccc1 [Tamoxifen, tamoxifen] as the compound, how does the pKa [1] read?
**A.** 8.8

**Q.** With COc1cccc2c1C(=O)c1c(O)c3c(c(O)c1C2=O)C[C@@](O)(C(=O)CO)C[C@@H]3O[C@H]1C[C@H](N)[C@@H](O)[C@H](C)O1 [epirubicin] as the compound, how does the treatment responses (T2-4 N0-1 breast cancer) read?
**A.** 76%

**Q.** With Rencarex®: an MN-specific drug as the compound, how does the “tolerability / drug-related side effects” value [2] read?
**A.** well-tolerated, with no serious drug-related side effects
